We go through seven molecules from patent US4916068A, “Bioconversion production of ascorbic acid with L-galactono-1,4-oxidase” (Kraft, Inc., priority 1984, dated 1990).

One may read the Km as the substrate concentration at which the rate is half of its maximum. Usually Vmax stands for the top rate of the reaction or transport when substrate is in excess.

Data set [1] has as its system preferred yeast strains. Put plainly: utilization of galactose derivatives for L-ascorbic acid formation. It counts as cell-based. As to conditions: compared with L-galactono-gamma-lactone. The text has this:
The D-galactose 18 is converted by catalytic oxidation to provide D-galacturonic acid 22. Processes to carry out this oxidative step for D-sugar acids are well known in the art and have been described in U.S. Pat. No. 2,265,121 by T. Reichstein. A variety of catalytic agents, e.g., platinum or palladium catalysts may be employed to convert blocked D-galactose (acetone) to the D-galacturonic acid product. The unblocked D-galacturonic acid may then be reduced by an appropriate reduction step such as reduction with gaseous hydrogen in the presence of a suitable hydrogenation catalyst such as Raney nickel, or palladium, to produce L-galactonic acid 24. Processes to carry out this chemical reduction are well known in the art such as described by H. Isbell, J. Res. Nat. Bur. Stds., 33, 45-60 (1944). Removal of water by distillation and condensation of the desalted L-sugar acid induces the formation of L-galactono-gamma-lactone 26 which is utilized in the microbiological conversion process of the present invention to form L-ascorbic acid. […] Keto-derivatives such as 5-Keto-L-Galactonic acid, are not utilized by the preferred yeast strains particularly described herein. The L-galactono-gamma-lactone 26, ethanol 16, and suitable organic and inorganic nutrients are combined to provide a fermentation medium 28 for a selected L-ascorbic acid overproducer.

Data set [2] concerns Candida norvegensis. Description: Assimilation tests (identification of the yeast). The conditions noted are these: C. norvegensis MF-56, MF-78 and parent CBS 2145. It counts as cell-based. The text has this: The morphological, cultural and physiological characteristics of the mutant strain C. norvegensis Kraft, Inc. MF-56 ATCC 20686, the mutant strain C. norvegensis Kraft, Inc. MF-78 ATCC 20732, and the parent strain C. norvegensis CBS 2145 are consistent with the yeast description provided in The Yeasts, a taxononomic study (J. Lodder (Ed.) 1970, North Holland Publishing Co., Amsterdam) and A New Key to the Yeasts (J. A. Barnett & R. J. Parkhurst (Ed) 1974, North Holland Publishing Co., Amsterdam).

The subject of data set [3] is L-Galactono-1,4-Lactone Oxidase. Put plainly: L-galactono-1,4-lactone oxidase activity, comparison of yeast strains. The class given is biochemical. The conditions noted are these: C. norvegensis (CBS 1911). As for the experimental part: An assay mixture is provided which contains 2mM L-galactono-1,4-lactone and 50 mM Na-Citrate pH 6.8 in a total volume of 3 ml. The mixture is incubated at 37° C. in a shaker bath for up to 30 minutes. The reaction is stopped by adding 0.3 ml of 50% TCA. The precipitated protein is removed by centrifugation and the supernatant is assayed for L-ascorbate by high performance liquid chromatography analysis with electrochemical detection and by 2,6,dichloroindophenol titration.
A series of 5 detergents: (1) nonylphenol POE-9 (NP-9), (2) polydet (P-40), (3) octylglucoside, (4) (3-[3-cholamindopropyl)-dimethylammonio]1-propane sulfonate (CHAPS), and (5) (3-[3-cholamindopropyl)-dimethyl ammonio]-2-hydroxy-1-propane sulfonate).2H2 O (CHAPSO) were tested. […] Biochem. & Biophys., 191, 47a (1978)].

Data set [4] deals with Candida norvegensis CBS 1911. Description: aerobic bioconversion run with ethanol carbon source. The class given is cell-based. The conditions noted are these: 48 hours; for Other redox Compounds / Total Ascorbate / L-Ascorbate: 0.5% substrate; for L-Ascorbate: HPLC with electrochemical detection; for Optical Density: SMl + 1.5% ethanol + 0.5% substrate, 30° C. As for the experimental part: (§1) Two yeast strains, Candida norvegensis CBS 1911 and Candida utilus NRRL Y-900 are utilized with an ethanol carbon source in separate bioconversion runs with each of two different substrates, L-galactono-1,4-lactone or D-galacturonic acid-methyl ester. The bioconversion runs are carried out under aerobic conditions in a 500 milliliter low actinic flask containing 50 ml of the biconversion medium. The bioconversions were carried out at a temperature of 30° C. for 48 hours with agitation provided by a skaker operating at 200 rpm. The medium for the C. norvegensis runs was the SMl medium previously described plus 1.5% ethanol plus 0.5% substrate. The medium for the C. utilus runs were SMl plus 1.5% ethanol plus 0.2% substrate.

Data set [5] concerns Candida utilus NRRL Y-900. Described as above. The class given is cell-based. The conditions noted are these: 48 hours; for Other redox Compounds / Total Ascorbate / L-Ascorbate: 0.2% substrate; for L-Ascorbate: HPLC with electrochemical detection; for Optical Density: SMl + 1.5% ethanol + 0.2% substrate, 30° C. The procedure:
as §1

Substrate in data set [6]: O=C1O[C@H]([C@@H](O)CO)[C@@H](O)[C@@H]1O
Put plainly: mitochondrial assay for L-galactono-1,4-lactone oxidase activity. It counts as biochemical, Saccharomyces Cerevisiae. As to conditions: other: intact mitochondrial system, substrate 0.1 mM to 50 mM; 37.0 °C. From the text: Two pounds of Red Star baker's yeast (Saccharomyces Cerevisiae), which is not overproductive in L-Ascorbic acid were disrupted according to the method of Tzagoloff [J. Biol. Chem., 244, 5020 (1969)]. The frozen powder (900 gm) was transferred to 1.51 of a solution consisting of 0.4 M sucrose, 0.05 M Tris(hydroxymethyl) amino methane (Tris-HCl) pH 8.2, with one millimolar ethylene diamine tetracetic acid (EDTA). The pH of the suspension was adjusted to 7.5 with sodium hydroxide and the suspension was subsequently homogenized in a blender for 45 seconds. The homogenate was centrifuged at 2500×g for 15 minutes at 4° C. and the cell debris was discarded. The supernatant was centrifuged at 62000×g in a Shar-les centrifuge. The pellet (mitochondria) was saved and resuspended in 250 ml of a solution containing 0.25 M sucrose and 0.01 M Tris-HCl pH 7.5 and frozen.
An assay mixture is provided which contains 2mM L-galactono-1,4-lactone and 50 mM Na-Citrate pH 6.8 in a total volume of 3 ml. The mixture is incubated at 37° C. in a shaker bath for up to 30 minutes. The reaction is stopped by adding 0.3 ml of 50% TCA. […]
The specific activity of this sample was calculated to be 2.5 ×10^-3 micromoles/min/mg protein. […]

As for `O=C(O)[C@@H](O)[C@H](O)[C@H](O)C(=O)CO` [5-Keto-L-Galactonic acid], the “utilization as substrate for L-ascorbic acid” value in data set [1] was “not utilized”.

For the molecule `O=[N+]([O-])[O-].[K+]` [KNO3], the “Assimilation of KNO3” value in data set [2] is given as “negative”.

As to `O=C1O[C@H]([C@@H](O)CO)[C@@H](O)[C@@H]1O` [L-galactono-1,4-lactone], the Km in data set [3] came out at 1300 µM. Further, in data set [4], the “Other redox Compounds” value stood at 10.1 µg/mL, the “Total Ascorbate” value was 10,625 ug/100 ml, the L-Ascorbate was determined as 92.8 µg/mL and the “Optical Density” value was found to be 2.05. Besides, in data set [5], the “Other redox Compounds” value was 1.8 µg/mL, the “Total Ascorbate” value is 15,905 ug/100 ml, the L-Ascorbate turned out to be 50.0 µg/mL and the “Optical Density” value is reported as 8.50.

In the case of `COC(=O)[C@@H](O)[C@H](O)[C@H](O)[C@@H](O)C=O` [D-galacturonic acid-methyl ester], in data set [4], the “Other redox Compounds” value came out at 17.5 µg/mL, the “Total Ascorbate” value worked out at 473 ug/100 ml, the L-Ascorbate is 3.5 µg/mL and the “Optical Density” value is recorded as 2.60. In addition, in data set [5], the “Other redox Compounds” value was found to be 1.3 µg/mL, the “Total Ascorbate” value was 4,383 ug/100 ml, the L-Ascorbate amounted to 12.0 µg/mL and the “Optical Density” value came out at 8.50.

In the case of `O=C(O)[C@@H](O)[C@H](O)[C@H](O)[C@@H](O)CO` [L-galactonic acid], the “utilization as substrate for L-ascorbic acid” value in data set [1] is recorded as “yields of L-ascorbic acid are reduced”.

On to `O=C[C@H](O)[C@@H](O)[C@H](O)CO` [D-Xylose], for which the “Assimilation of carbon compounds” value in data set [2] is “+ latent or”.

B1: L-galactono-1,4-lactone oxidase (Saccharomyces cerevisiae S288C) (protein)
chain: MSTIPFRKNYVFKNWAGIYSAKPERYFQPSSIDEVVELVKSARLAEKSLVTVGSGHSPSNMCVTDEWLVNLDRLDKVQKFVEYPELHYADVTVDAGMRLYQLNEFLGAKGYSIQNLGSISEQSVAGIISTGSHGSSPYHGLISSQYVNLTIVNGKGELKFLDAENDPEVFKAALLSVGKIGIIVSATIRVVPGFNIKSTQEVITFENLLKQWDTLWTSSEFIRVWWYPYTRKCVLWRGNKTTDAQNGPAKSWWGTKLGRFFYETLLWISTKIYAPLTPFVEKFVFNRQYGKLEKSSTGDVNVTDSISGFNMDCLFSQFVDEWGCPMDNGLEVLRSLDHSIAQAAINKEFYVHVPMEVRCSNTTLPSEPLDTSKRTNTSPGPVYGNVCRPFLDNTPSHCRFAPLENVTNSQLTLYINATIYRPFGCNTPIHKWFTLFENTMMVAGGKPHWAKNFLGSTTLAAGPVKKDTDYDDFEMRGMALKVEEWYGEDLKKFRKIRKEQDPDNVFLANKQWAIINGIIDPSELSD
notes: The pellet (mitochondria) was saved and resuspended in 250 ml; endogenous in cells; host or cells: mitochondria of Red Star baker's yeast (Saccharomyces cerevisiae)
Turning to B1, in data set [6], the Km turned out to be 1600 µM and the Vmax worked out at 0.34 µmol/min.
